Structures can show the parent of a compound that is named as a salt. Where two headings read alike, the source gives them in different places.

One test concerns PAXF1657 KO Clone #4. Put plainly: 7-day cellular proliferation assay (CellTiter-Glo), PAXF1657 KO Clone #4. It counts as cell-based. Put shortly: (§1)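 PAXF1657 isogenic lines (GRK2-overexpressing vs empty vector; CRISPR GRK2 knockout vs non-targeting control clones) seeded 500 cells/well in RPMI1640/10% FBS and treated next day with 10-point dilutions, 30 μM-0.0002 μM final, 0.3% DMSO. Media with compound refreshed after 3 days; viability read by CellTiter-Glo luminescence at day 7.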

A further test concerns PAXF1657 EV. Put plainly: 7-day cellular proliferation assay (CellTiter-Glo), PAXF1657 EV. It counts as cell-based. Put shortly: as §1
In test [1] the target is T1, GRK2 (Homo sapiens, UniProt P25098).
T1 sequence (P25098 1-689): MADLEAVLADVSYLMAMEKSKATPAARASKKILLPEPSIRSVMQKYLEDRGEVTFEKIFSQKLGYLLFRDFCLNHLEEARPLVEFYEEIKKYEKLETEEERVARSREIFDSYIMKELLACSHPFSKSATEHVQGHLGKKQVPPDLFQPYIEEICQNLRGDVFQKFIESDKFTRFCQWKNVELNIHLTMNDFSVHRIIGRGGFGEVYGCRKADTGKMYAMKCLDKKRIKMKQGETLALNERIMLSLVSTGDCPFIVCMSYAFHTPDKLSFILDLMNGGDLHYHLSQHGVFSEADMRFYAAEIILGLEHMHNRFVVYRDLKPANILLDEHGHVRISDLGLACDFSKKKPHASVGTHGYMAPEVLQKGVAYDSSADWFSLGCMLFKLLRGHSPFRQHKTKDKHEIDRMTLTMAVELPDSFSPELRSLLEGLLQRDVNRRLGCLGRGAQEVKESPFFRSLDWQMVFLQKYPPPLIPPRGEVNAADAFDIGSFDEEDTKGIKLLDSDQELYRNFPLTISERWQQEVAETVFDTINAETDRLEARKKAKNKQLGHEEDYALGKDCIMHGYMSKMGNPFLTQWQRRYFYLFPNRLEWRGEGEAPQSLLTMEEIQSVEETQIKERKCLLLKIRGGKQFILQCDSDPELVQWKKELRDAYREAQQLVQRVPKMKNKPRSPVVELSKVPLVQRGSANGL
Put plainly: GRK2 Inhibition Assay (TR-FRET, Example 1). It counts as biochemical. Here is the method:
Assay: GRK2 enzyme (1 nM final concentration) was diluted in 25 mM HEPES, 10 mM MgCl2, 2 mM DTT, 0.01% Tween-20, and 1 mM EGTA. Then the GRK2 mixture was added into ProxiPlate-384 white plate and pre-incubated for 30 min with test compounds at room temperature. ATP (7 μM final concentration) and Ulight TopoIIα (50 nM final concentration) were added into the assay plate to initiate the reaction and the mixture was incubated at room temperature for 90 min. Then, Eu anti-TopoIIα (0.12 nM final concentration), BSA (0.01% final concentration), and EDTA (11 mM final concentration) in LANCE assay buffer were added into each well. After 60 min incubation time at room temperature, TR-FRET signal was measured by EnVision plate reader.

The target of test [2] is T1, GRK2. Put plainly: GRK2 Degradation Assay and Western Blot in PAXF1657 cells. It is filed as cell-based. Also on record: endogenous in cells; host or cells: PAXF1657. The conditions noted are these: for inhibition at 0.3 µM: Conc 0.3 uM; for DC50: PAXF1657, 24 h, read-out: Degradation Assay - Full Dose Response: IC50 (uM) [cell line: PAXF1657, time point: 24 h]. The procedure, abridged:
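PAXF1657 cells grown to 70% confluency, then treated with compounds at 0–10 μM for 6 to 24 h at 37 °C. Lysates in PBS with 1% NP40 run on SDS-PAGE. GRK2 protein detected by western blot with β-actin as loading reference, using ECL chemiluminescence.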

Setting [3] is: proliferation, read-out: GeoMean IC50 (uM) PAXF1657 KO Clone #4.
[4] abbreviates: proliferation, read-out: GeoMean IC50 (UM) PAXF1657 EV.
Where [5] appears, read: Table 4, Example 1 assay, read-out: Enzymatic GRK2 IC50: Av IC50 GRK2.
[6] abbreviates: read-out: Degradation Assay - 3 point: Degradation (%).
[7] abbreviates: Conc 1 uM, read-out: Degradation Assay - 3 point: Degradation (%).
The mark [8] stands for this setting: Conc 3 uM, read-out: Degradation Assay - 3 point: Degradation (%).
[9] abbreviates: TR-FRET, 7 μM ATP, read-out: Enzymatic GRK2 Assay: IC50 (nM) (Example 1).

For `C[C@@H](NC(=O)c1cccc(NCc2nnc(-c3ccncn3)n2C)c1)c1cccc(OCCCCCCOCCOCCN2CCN(c3cc4c(cc3F)C(=O)N(C3CCC(=O)NC3=O)C4=O)CC2)c1` (stereo partly drawn) [Compound D140, N-((1R)-1-(3-(6-(2-(2-(4-(2-(2,6-dioxopiperidin-3-yl)-6-fluoro-1,3-dioxoisoindolin-5-yl)piperazin-1-yl)ethoxy)ethoxy)hexyloxy)phenyl)ethyl)-3-((4-methyl-5-(pyrimidin-4-yl)-4H-1,2,4-triazol-3-yl)methylamino)benzamide], the IC50 in the test with PAXF1657 KO Clone #4 (setting [3]) amounted to 19.9 µM; in the test on PAXF1657 EV (setting [4]), 0.78 µM; at GRK2 [1] (setting [5]), 20.9 nM. Moreover, at GRK2 [2] (setting [6]), the inhibition at 0.3 µM turned out to be 88%. The inhibition at 1 µM at GRK2 [2] (setting [7]) worked out at 92%. Also, the inhibition at 3 µM on GRK2 [2] (setting [8]) was found to be 93%. In addition, the DC50 on GRK2 [2] is 0.12 µM.

Consider `C[C@H](NC(=O)c1cccc(NCc2nnc(-c3ccncn3)n2C)c1)c1ccc(OCCCCN2CCN(c3ccc4c(c3)CN(C3CCC(=O)NC3=O)C4=O)CC2)cc1` (stereo partly drawn) [Compound D117, N-((1S)-1-(4-(4-(4-(2-(2,6-dioxopiperidin-3-yl)-1-oxoisoindolin-5-yl)piperazin-1-yl)butoxy)phenyl)ethyl)-3-((4-methyl-5-(pyrimidin-4-yl)-4H-1,2,4-triazol-3-yl)methylamino)benzamide hydrochloride], for which, on GRK2 [1] (setting [5]), the IC50 is over 1000 nM. For the same molecule, at GRK2 [2] (setting [6]), the inhibition at 0.3 µM stood at 12.3%. The inhibition at 1 µM on GRK2 [2] (setting [7]) was -20.5%. Moreover, the inhibition at 3 µM at GRK2 [2] (setting [8]) was -4.97%.

Turning to `C[C@@H](NC(=O)c1cccc(NCc2nnc(-c3ccncn3)n2C)c1)c1cccc(OCCCCCCOCCN2CCN(c3ccc4c(c3)CN(C3CCC(=O)NC3=O)C4=O)CC2)c1` (stereo partly drawn) [Compound D126, N-((1R)-1-(3-(6-(2-(4-(2-(2,6-dioxopiperidin-3-yl)-1-oxoisoindolin-5-yl)piperazin-1-yl)ethoxy)hexyloxy)phenyl)ethyl)-3-((4-methyl-5-(pyrimidin-4-yl)-4H-1,2,4-triazol-3-yl)methylamino)benzamide], the IC50 was over 30 µM in the test with PAXF1657 KO Clone #4 (setting [3]), 0.13 µM in the test on PAXF1657 EV (setting [4]) and 4.56 nM on GRK2 [1] (setting [5]). Besides, the inhibition at 0.3 µM on GRK2 [2] (setting [6]) is 93.2%. For the same molecule, the inhibition at 1 µM on GRK2 [2] (setting [7]) stood at 94.1%. Also, the inhibition at 3 µM on GRK2 [2] (setting [8]) stood at 88%. Also, the DC50 on GRK2 [2] was 0.04 µM.

Take `Cc1ncsc1-c1ccc(CNC(=O)[C@@H]2C[C@@H](O)CN2C(=O)[C@@H](NC(=O)CCCc2cn(CCCCCCOc3cccc(CNC(=O)c4cccc(NCc5nnc(-c6ccncn6)n5C)c4)c3)nn2)C(C)(C)C)cc1` [Compound D86]: the IC50 was over 10 µM in the test on PAXF1657 KO Clone #4 (168 h, 7-day, read-out: 7-day proliferation assay: IC50 GeoMean (uM) [Cell Line: PAXF1657 KO Clone #4]); over 10 µM in the test with PAXF1657 EV (168 h, 7-day, read-out: 7-day proliferation assay: IC50 GeoMean (uM) [Cell Line: PAXF1657 EV]); under 100 nM at GRK2 [1] (setting [9]). Moreover, the inhibition at 1 µM at GRK2 [2] (1 uM, PAXF1657 EV, 24 hrs, read-out: % GRK2 degradation at 1 uM in PAXF1657 EV (24 hrs)) came to 16%. Also, the inhibition at 3 µM on GRK2 [2] (3 uM, PAXF1657 EV, 24 hrs, read-out: % GRK2 degradation at 3 uM in PAXF1657 EV (24 hrs)) is 24%.

Regarding `C[C@@H](NC(=O)c1cccc(NCc2nnc(-c3ccncn3)n2C)c1)c1cccc(OCCCCCCOCCOCCN2CCN(c3ccc4c(c3)CN(C3CCC(=O)NC3=O)C4=O)CC2)c1` (stereo partly drawn) [Compound D135, N-((1R)-1-(3-(6-(2-(2-(4-(2-(2,6-dioxopiperidin-3-yl)-1-oxoisoindolin-5-yl)piperazin-1-yl)ethoxy)ethoxy)hexyloxy)phenyl)ethyl)-3-((4-methyl-5-(pyrimidin-4-yl)-4H-1,2,4-triazol-3-yl)methylamino)benzamide], on GRK2 [1] (setting [5]), the IC50 was 23.7 nM. Further, the inhibition at 0.3 µM at GRK2 [2] (setting [6]) was determined as 82.2%. Moreover, the inhibition at 1 µM on GRK2 [2] (setting [7]) stood at 84.2%. For the same molecule, at GRK2 [2] (setting [8]), the inhibition at 3 µM came to 84.3%. Moreover, at GRK2 [2], the DC50 came out at 0.06 µM.

Consider `Cc1ncsc1-c1ccc(CNC(=O)[C@@H]2C[C@@H](O)CN2C(=O)[C@@H](NC(=O)CCCCCOCCOCCOCCCCCCOc2ccc(F)c([C@@H](C)NC(=O)c3cccc(NCc4nnc(-c5ccncn5)n4C)c3)c2)C(C)(C)C)cc1` [Compound D75, (2S,4R)-1-((S)-2-(tert-butyl)-22-(4-fluoro-3-((R)-1-(3-(((4-methyl-5-(pyrimidin-4-yl)-4H-1,2,4-triazol-3-yl)methyl)amino)benzamido)ethyl)phenoxy)-4-oxo-10,13,16-trioxa-3-azadocosan-1-oyl)-4-hydroxy-N-(4-(4-methylthiazol-5-yl)benzyl)pyrrolidine-2-carboxamide], for which, on GRK2 [1] (setting [9]), the IC50 is under 100 nM.

For the molecule `C[C@@H](NC(=O)c1cccc(NCc2nnc(-c3ccncn3)n2C)c1)c1cccc(OCCCCCCOCCN2CCN(c3cc4c(cc3F)C(=O)N(C3CCC(=O)NC3=O)C4=O)CC2)c1` (stereo partly drawn) [Compound D134, N-((1R)-1-(3-(6-(2-(4-(2-(2,6-dioxopiperidin-3-yl)-6-fluoro-1,3-dioxoisoindolin-5-yl)piperazin-1-yl)ethoxy)hexyloxy)phenyl)ethyl)-3-((4-methyl-5-(pyrimidin-4-yl)-4H-1,2,4-triazol-3-yl)methylamino)benzamide], the IC50 on GRK2 [1] (setting [5]) was 29.9 nM. Moreover, the inhibition at 0.3 µM at GRK2 [2] (setting [6]) is 64.1%. Also, the inhibition at 1 µM on GRK2 [2] (setting [7]) was 82.6%. Moreover, the inhibition at 3 µM on GRK2 [2] (setting [8]) is 86.7%. Further, at GRK2 [2], the DC50 was 0.29 µM.

Consider `C[C@@H](NC(=O)c1cccc(NCc2nnc(-c3ccncn3)n2C)c1)c1cc(OCCCCCCOCCOCCOCCCCCC(=O)Nc2cccc3c2CN(C2CCC(=O)NC2=O)C3=O)ccc1F` (stereo partly drawn) [Compound D54, N-((1R)-1-(5-((6-(2-(2-((6-((2-(2,6-dioxopiperidin-3-yl)-1-oxoisoindolin-4-yl)amino)-6-oxohexyl)oxy)ethoxy)ethoxy)hexyl)oxy)-2-fluorophenyl)ethyl)-3-(((4-methyl-5-(pyrimidin-4-yl)-4H-1,2,4-triazol-3-yl)methyl)amino)benzamide], for which the IC50 at GRK2 [1] (setting [9]) was under 100 nM.

Turning to `Cc1ncsc1-c1ccc(CNC(=O)[C@@H]2C[C@@H](O)CN2C(=O)C(NC(=O)CCCCc2cn(CCCCCCOc3cccc(CNC(=O)c4cccc(NCc5nnc(-c6ccncn6)n5C)c4)c3)nn2)C(C)(C)C)cc1` (some centres unmarked) [Compound D84], the IC50 on GRK2 [1] (setting [9]) is under 100 nM.

`Cc1ncsc1-c1ccc(CNC(=O)[C@@H]2C[C@H](O)CN2C(=O)[C@@H](NC(=O)CCCCCOCCOCCOCCCCCCOc2cccc(CNC(=O)c3cccc(NCc4nnc(-c5ccncn5)n4C)c3)c2)C(C)(C)C)cc1` [Compound D89]: the IC50 at GRK2 [1] (setting [9]) is under 100 nM.

Consider `C[C@H](NC(=O)c1cccc(NCc2nnc(-c3ccncn3)n2C)c1)c1ccc(OCCCN2CCN(c3ccc4c(c3)CN(C3CCC(=O)NC3=O)C4=O)CC2)cc1` (stereo partly drawn) [Compound D118, N-((1S)-1-(4-(3-(4-(2-(2,6-dioxopiperidin-3-yl)-1-oxoisoindolin-5-yl)piperazin-1-yl)propoxy)phenyl)ethyl)-3-((4-methyl-5-(pyrimidin-4-yl)-4H-1,2,4-triazol-3-yl)methylamino)benzamide hydrochloride], for which the IC50 at GRK2 [1] (setting [5]) is over 1000 nM. Further, the inhibition at 0.3 µM at GRK2 [2] (setting [6]) was -13.1%. Also, on GRK2 [2] (setting [7]), the inhibition at 1 µM worked out at 3.23%. On GRK2 [2] (setting [8]), the inhibition at 3 µM came out at 5.18%.
